The values below are quoted from earlier work in paper PMC8791944, “GLUT3 inhibitor discovery through in silico ligand screening and in vivo validation in eukaryotic expression systems” (Scientific Reports, 2022).

The series relates to GLUT3. As to conditions: read-out: KM of 2-deoxy-glucose for GLUT3; GLUT3 expressed in Xenopus laevis oocytes ref 12; cited from earlier work.

Regarding `O=CC[C@@H](O)[C@H](O)[C@H](O)CO` [2-deoxy-glucose, 2-deoxy-D-glucose], the Km is roughly 1400 µM.

As a reminder, the Km is the concentration of substrate that gives half-maximal velocity.
